Test results from PubChem BioAssay (NCI).
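1) Cells in 96-well plates. 2) Compound, 48 h, 5 concentrations. 3) Linear interpolation between surrounding doses. 4) Unreached endpoint = highest concentration. Abbreviation: GI50, concentration required for 50% inhibition of growth. TGI marks complete inhibition of growth.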

What was measured:
Assay in all cases: NCI tumour cell line growth inhibition, 48 h
NCI-H522 lung = test system: NCI-H522 lung
K-562 leukemia = test system: K-562 leukemia
SF-539 CNS = test system: SF-539 CNS
MDA-MB-435 = test system: MDA-MB-435
DU-145 prostate = test system: DU-145 prostate
SK-MEL-28 melanoma = test system: SK-MEL-28 melanoma
UACC-62 melanoma = test system: UACC-62 melanoma
MOLT-4 leukemia = test system: MOLT-4 leukemia
SK-MEL-2 melanoma = test system: SK-MEL-2 melanoma
BT-549 breast = test system: BT-549 breast

SMILES | GI50 (NCI-H522 lung) | TGI (NCI-H522 lung) | GI50 (K-562 leukemia) | TGI (K-562 leukemia) | GI50 (SF-539 CNS) | TGI (SF-539 CNS) | GI50 (MDA-MB-435) | TGI (MDA-MB-435) | GI50 (DU-145 prostate) | TGI (DU-145 prostate) | GI50 (SK-MEL-28 melanoma) | TGI (SK-MEL-28 melanoma) | GI50 (UACC-62 melanoma) | TGI (UACC-62 melanoma) | GI50 (MOLT-4 leukemia) | GI50 (SK-MEL-2 melanoma) | TGI (SK-MEL-2 melanoma) | GI50 (BT-549 breast) | TGI (BT-549 breast) | TGI (MOLT-4 leukemia)
O=C(CCl)N1c2ccccc2Sc2ccc3ccccc3c21 | 0.509 µM | 1.1 µM | 0.659 µM | 3.49 µM | 1.72 µM | 3.15 µM | 1.46 µM | 3.01 µM | 1.53 µM | 2.9 µM | 1.65 µM | 3.01 µM | 1.53 µM | 2.88 µM | 0.478 µM | 1.97 µM | 3.8 µM | 1.56 µM | 3.52 µM | 
O=C(O)c1cc2cc(OCc3ccccc3)c(OCc3ccccc3)cc2[nH]1 | 24 µM | 62.2 µM | 29.3 µM | > 100 µM | 19.9 µM | 44 µM | 19.2 µM | 47.9 µM | 32.8 µM | > 100 µM | 19.5 µM | 43.2 µM | 17.5 µM | 34.5 µM | 25 µM | 21.4 µM | 44.7 µM | 18.5 µM | 35.6 µM | > 100 µM
Cc1cc(Cc2cc(C)cc(C(C)(C)C)c2O)c(O)c(C(C)(C)C)c1 | 4.16 µM | 14.6 µM | 3.95 µM | 19.8 µM | 13.3 µM | 26 µM | 7.82 µM | 22.2 µM | 4.9 µM | 16.6 µM | 12.9 µM | 25.6 µM | 10.4 µM | 22.2 µM | 6.27 µM | 15.1 µM | 33.6 µM | 11 µM | 23.9 µM | > 100 µM
Cc1cc(C)c(O)c(CN(C)Cc2cc(Cl)cc(Cl)c2O)c1 | 2.22 µM | 6.14 µM | 3.54 µM | > 100 µM | 6.43 µM | 25.1 µM | 6.16 µM | 30.2 µM | 6.37 µM | 20.8 µM | 11.4 µM | 24 µM | 3.42 µM | 13.1 µM | 3.45 µM | 6.52 µM | 19.6 µM | 11.8 µM | 27.3 µM | 34.7 µM
Cc1ccc2c(O)c(O)cc(NC(C)CCCN)c2n1 (stereo not drawn) | 3.15 µM | 9.87 µM | 12.3 µM | 60.4 µM | 3.83 µM | 17.2 µM | 19.4 µM | 38.3 µM | 10.5 µM | 31.4 µM | 27.3 µM | 55.3 µM | 27.3 µM | > 66.8 µM | 2.6 µM | > 45.9 µM | > 91.9 µM | 32.1 µM | > 68.6 µM | 8.99 µM
O=C(N/N=C/c1ccccc1O)C(=O)Nc1ccc(F)cc1 | 3.01 µM | 52 µM | 5.02 µM | > 100 µM | 2.98 µM | 18.5 µM | 8.4 µM | > 100 µM | 7.14 µM | > 100 µM | 8.04 µM | > 100 µM | 3.32 µM | 23.1 µM | 2.87 µM | 22.9 µM | > 100 µM | 18.1 µM | > 100 µM | > 100 µM
CSc1ccc2c3c(n(C[C@H](O)CO)c(=O)c2c1)-c1ccccc1C3=O | 2 µM | 25.5 µM | 1.72 µM | > 100 µM | 2.36 µM | 7.37 µM | 9.95 µM | > 100 µM | 2.5 µM | > 100 µM | 4.46 µM | 48.8 µM | 1.39 µM | 4.64 µM | 0.368 µM | 16.6 µM | 60.8 µM | 2.77 µM | 22.8 µM | 2.33 µM
CN1CCN(Cc2ccc(NC(=O)c3ccc(C#Cc4c(N)ncc5ccc(F)cc45)cc3)cc2C(F)(F)F)CC1 | 0.86 µM | 1.59 µM | 0.677 µM | 1.87 µM |  | 1.78 µM | 0.874 µM | 1.59 µM | 0.968 µM | 1.77 µM | 1.01 µM | 1.74 µM | 1 µM | 1.84 µM | 0.799 µM | 1.08 µM | 2.04 µM | 3.19 µM | 9.68 µM | 1.74 µM
O=C(O)c1ccc(N/C=C2\C(=O)c3ccccc3OC2O)cc1O (stereo not drawn) | 28 µg/mL | 62.9 µg/mL | 16 µg/mL | 87.2 µg/mL | 16.5 µg/mL | 39.1 µg/mL | 20.2 µg/mL | 68.4 µg/mL | 22.7 µg/mL | 65.6 µg/mL | 25.1 µg/mL | 69.2 µg/mL | 17.4 µg/mL | 52.4 µg/mL | 13.2 µg/mL | 23.5 µg/mL | 51.1 µg/mL | 19 µg/mL | 71.2 µg/mL | 77.9 µg/mL
COc1ccc(Cl)cc1NC(=O)C(Br)C(Br)C(=O)O (stereo not drawn) | 1.91 µM | 5.45 µM | 1.46 µM | > 100 µM | 11.5 µM | 25.4 µM | 4.27 µM | 20.7 µM | 35.7 µM | > 100 µM | 7.69 µM | > 49.2 µM | 2.81 µM | 8.93 µM | 6.78 µM | 7.54 µM | 26.2 µM | 3.23 µM | 13 µM | > 100 µM
O=C(N/N=C/c1ccc([N+](=O)[O-])cc1)c1ccc2nc(-c3ccc(Cl)cc3)[nH]c2c1 | 3.05 µM | 11.7 µM | 0.499 µM | 8.44 µM | 2.73 µM | 10.1 µM | 3.57 µM | 12.2 µM | 3.99 µM | 21.4 µM | 2.6 µM | 10.3 µM | 3.51 µM | 14.9 µM | 0.421 µM | 5.1 µM | 21.9 µM | 2.84 µM | 9.71 µM | 3.85 µM
Cc1ccc2c(c1)NC(=O)CC(c1ccccc1)=N2 |  | > 100 µM |  | 26.7 µM |  | > 100 µM |  | > 100 µM |  | > 100 µM |  | > 100 µM |  | > 100 µM |  |  | > 100 µM |  | > 100 µM | 85.8 µM
COc1ccc(/C=C/C(=O)Oc2cc(O)cc(O)c2)cc1 |  | > 100 µM |  | > 100 µM |  | > 100 µM |  | > 100 µM |  | > 100 µM |  | > 100 µM |  | > 100 µM |  |  | > 100 µM |  | > 100 µM | 30.7 µM
